Measured values published in patent publication US20240199613A1 (TAKEDA PHARMACEUTICAL COMPANY LIMITED, priority 2021, published 2024).

Target: human activated kallikrein enzyme (Homo sapiens, UniProt P03952)
Assay: Inhibition of activated plasma kallikrein, fluorogenic peptide substrate (PFR-AMC) assay, 500 pM enzyme format
Format: biochemical
Settings: 500 pM activated kallikrein, 300 uM PFR-AMC, 30 min preincubation, 10 min reaction, room temperature; read-out: Primary Dose Response Assay: Average EC50
Protocol: Compounds were evaluated for inhibition of the human activated kallikrein enzyme in two formats of an assay employing a fluorogenic peptide substrate. In one assay format, the concentrations of reagents were as follows: 20 mM Tris pH 7.5, 1 mM EDTA, 150 mM sodium chloride, 0.1% PEG-400, 0.1% Triton X-100, 500 pM activated kallikrein enzyme, 300 uM Pro-Phe-Arg-7-amido-4-methylcoumarin (PFR-AMC) substrate. Prior to reaction initiation with substrate, enzyme and inhibitors were preincubated for 30 min at room temperature. After initiation with substrate, reactions were incubated for 10 min at room temperature and fluorescence emission at 460 nm from 380 nm excitation measured with a microplate reader. In another assay format, the concentrations of reagents were as follows: 20 mM Tris pH 7.5, 1 mM EDTA, 150 mM sodium chloride, 0.1% PEG-400, 0.1% Triton X-100, 5 pM activated kallikrein enzyme, 300 uM PFR-AMC substrate. Prior to reaction initiation with substrate, enzyme and inhibitors were preincubated for 30 min at room temperature. After initiation with substrate, reactions were incubated for 18 hr at room temperature and fluorescence emission at 460 nm from 380 nm excitation measured with a microplate reader.
Table 6 provides the results of the assay in the format with 500 pM activated kallikrein assay.

human activated kallikrein enzyme, sequence (P03952 391-638 limits assumed): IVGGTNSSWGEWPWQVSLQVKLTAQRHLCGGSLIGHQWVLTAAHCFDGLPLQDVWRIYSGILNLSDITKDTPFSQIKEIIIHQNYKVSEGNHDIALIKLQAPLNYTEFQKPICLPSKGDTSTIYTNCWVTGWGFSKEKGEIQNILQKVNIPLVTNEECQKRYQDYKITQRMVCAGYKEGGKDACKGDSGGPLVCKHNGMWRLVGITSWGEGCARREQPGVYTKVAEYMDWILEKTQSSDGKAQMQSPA
human activated kallikrein enzyme, sequence (P03952 20-390 partner limits assumed): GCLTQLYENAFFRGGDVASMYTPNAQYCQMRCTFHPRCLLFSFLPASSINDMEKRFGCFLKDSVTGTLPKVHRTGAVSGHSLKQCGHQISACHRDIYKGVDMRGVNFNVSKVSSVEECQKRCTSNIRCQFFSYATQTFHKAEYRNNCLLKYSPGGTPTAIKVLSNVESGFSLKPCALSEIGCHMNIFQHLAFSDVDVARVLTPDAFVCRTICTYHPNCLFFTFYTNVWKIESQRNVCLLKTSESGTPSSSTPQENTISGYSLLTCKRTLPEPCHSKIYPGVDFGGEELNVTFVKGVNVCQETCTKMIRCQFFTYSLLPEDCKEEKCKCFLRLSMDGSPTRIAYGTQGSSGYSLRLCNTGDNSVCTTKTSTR

First: O=c1[nH]c([C@H]2C[C@@H]2c2cccc(Cl)c2)nc2cc(NCc3cn4cc(C5CC5)ccc4n3)ncc12 [Example 2, 2-((1S,2S)-2-(3-chlorophenyl)cyclopropyl)-7-(((6-cyclopropylimidazo[1,2-a]pyridin-2-yl)methyl)amino)pyrido[4,3-d]pyrimidin-4 (3H)-one]
Second: Clc1cccc([C@H]2C[C@@H]2c2nc3cccc(NCc4cn5cc(C6CC6)ccc5n4)c3[nH]2)c1 [Example 46, 2-((1S, 2S)-2-(3-chlorophenyl)cyclopropyl)-N-((6-cyclopropylimidazo[1,2-a]pyridin-2-yl)methyl)-1H-benzo[d]imidazol-7-amine]
The EC50 of the first is lower: 10 to 100 nM for the first, over 6500 nM for the second. The first is the more potent here.

Cc1ccnc([C@H]2C[C@@H]2c2ccc3ncc(NCc4cn5cc(C6CC6)cc(N6CC(=O)N(C)C6=O)c5n4)cc3c2)n1 (racemic) [Example 16, rac-1-(6-Cyclopropyl-2-(((6-((1S*,2S*)-2-(4-methylpyrimidin-2-yl)cyclopropyl)quinolin-3-yl)amino)methyl)imidazo[1,2-a]pyridin-8-yl)-3-methylimidazolidine-2,4-dione] and Cc1ccnc([C@H]2C[C@@H]2c2cnc3ccc(NCc4cn5cc(C6CC6)cc(N6CC(=O)N(C)C6=O)c5n4)cc3c2)n1 (racemic) [Example 24, rac-1-(6-cyclopropyl-2-(((3-((1S*,2S*)-2-(4-methylpyrimidin-2-yl)cyclopropyl)quinolin-6-yl)amino)methyl)imidazo[1,2-a]pyridin-8-yl)-3-methylimidazolidine-2,4-dione] fall in the same range of EC50: 100 to 6500 nM for the first, 100 to 6500 nM for the second.

First: Cc1ccnc([C@H]2C[C@@H]2c2cnc3ccc(NCc4cn5cc(C6CC6)cc(N6CC(=O)N(C)C6=O)c5n4)cc3n2)n1 (racemic) [Example 62, rac-1-(6-cyclopropyl-2-(((3-((1S*,2S*)-2-(4-methylpyrimidin-2-yl)cyclopropyl)quinoxalin-6-yl)amino)methyl)imidazo[1,2-a]pyridin-8-yl)-3-methylimidazolidine-2,4-dione]
Second: Cc1ccnc([C@H]2C[C@@H]2c2cc(C#N)c3ccc(NCc4cn5cc(C6CC6)cc(N6CC(=O)N(C)C6=O)c5n4)cc3n2)n1 (racemic) [Example 73, rac-7-(((6-cyclopropyl-8-(3-methyl-2,4-dioxoimidazolidin-1-yl)imidazo[1,2-a]pyridin-2-yl)methyl)amino)-2-((1S*,2S*)-2-(4-methylpyrimidin-2-yl)cyclopropyl)quinoline-4-carbonitrile]
The EC50 of the first is higher: 100 to 6500 nM for the first, 10 to 100 nM for the second.

COc1cc([C@H]2C[C@@H]2c2nccc(C)n2)nc2cc(N3C[C@@H](O)C[C@@H]3c3cn4cc(C5CC5)ccc4n3)ccc12 (relative stereo) [Example 53, (3S,5R)-5-(6-cyclopropylimidazo[1,2-a]pyridin-2-yl)-1-(4-methoxy-2-(rac-(1S*,2S*)-2-(4-methylpyrimidin-2-yl)cyclopropyl)quinolin-7-yl)pyrrolidin-3-ol] and Cc1ccnc([C@H]2C[C@@H]2c2ccc3ccc(NCc4cn5cc(C6CC6)ccc5n4)cc3n2)n1 (racemic) [Example 19, rac-N-((6-cyclopropylimidazo[1,2-a]pyridin-2-yl)methyl)-2-((1S*,2S*)-2-(4-methylpyrimidin-2-yl)cyclopropyl)quinolin-7-amine] fall in the same range of EC50: 1 to 10 nM for the first, 1 to 10 nM for the second.

Compared with Cc1ccnc([C@H]2C[C@@H]2c2nc3cc(NCc4cn5cc(C6CC6)ccc5n4)ccc3c(=O)[nH]2)n1 (relative stereo) [Example 3], Cc1ccnc([C@H]2C[C@@H]2C2=NS(=O)(=O)c3ccc(NCc4cn5cc(C6CC6)ccc5n4)cc3N2C)n1 [Example 94, 6-(((6-cyclopropylimidazo[1,2-a]pyridin-2-yl)methyl)amino)-4-methyl-3-((1S,2S)-2-(4-methylpyrimidin-2-yl)cyclopropyl)-4H-benzo[e][1,2,4]thiadiazine 1,1-dioxide] is higher in EC50: 1 to 10 nM for the first, 100 to 6500 nM for the second. The first is the more potent here.

Cc1ccnc([C@H]2C[C@@H]2c2ccc3ncn(Cc4cn5cc(C6CC6)cc(N6CC(=O)N(C)C6=O)c5n4)c3n2)n1 (racemic) [Example 71, rac-1-(6-cyclopropyl-2-((5-((1S*,2S*)-2-(4-methylpyrimidin-2-yl)cyclopropyl)-3H-imidazo[4,5-b]pyridin-3-yl)methyl)imidazo[1,2-a]pyridin-8-yl)-3-methylimidazolidine-2,4-dione] and Cc1ccnc([C@H]2C[C@@H]2c2ccc3cccc(NCc4cn5cc(C6CC6)cc(N6CC(=O)N(C)C6=O)c5n4)c3n2)n1 (racemic) [Example 70, rac-1-(6-cyclopropyl-2-(((2-((1S*,2S*)-2-(4-methylpyrimidin-2-yl)cyclopropyl)quinolin-8-yl)amino)methyl)imidazo[1,2-a]pyridin-8-yl)-3-methylimidazolidine-2,4-dione] cannot be ordered by EC50: over 6500 nM for the first, over 6500 nM for the second.

CN1C(=O)CN(c2cc(C3CC3)cn3cc(CNc4ccc5ccc([C@H]6C[C@@H]6c6cc(Cl)ccc6C#N)nc5c4)nc23)C1=O (racemic) [Example 83, rac-4-chloro-2-((1S*,2S*)-2-(7-(((6-cyclopropyl-8-(3-methyl-2,4-dioxoimidazolidin-1-yl)imidazo[1,2-a]pyridin-2-yl)methyl)amino)quinolin-2-yl)cyclopropyl)benzonitrile] and Cc1ccnc([C@H]2C[C@@H]2c2ccc3ccc(NCc4cn5cc(C6CC6)cc(N6C(=O)N(C)C(=O)C6C6(O)COC6)c5n4)cc3n2)n1 (relative stereo) [Example 90, rac-1-(6-cyclopropyl-2-(((2-((1S*,2S*)-2-(4-methylpyrimidin-2-yl)cyclopropyl)quinolin-7-yl)amino)methyl)imidazo[1,2-a]pyridin-8-yl)-5-(3-hydroxyoxetan-3-yl)-3-methylimidazolidine-2,4-dione] fall in the same range of EC50: 1 to 10 nM for the first, 1 to 10 nM for the second.

Compared with O=c1cc(C2C[C@@H]2c2cccc(Cl)c2)[nH]c2cc(NCc3cn4cc(C5CC5)ccc4n3)ccc12 (mixture of isomers) [Example 49, rac-2-((1S*,2S*)-2-(3-chlorophenyl)cyclopropyl)-7-(((6-cyclopropylimidazo[1,2-a]pyridin-2-yl)methyl)amino)quinolin-4 (1H)-one], COc1cc([C@H]2C[C@@H]2c2cccc(Cl)c2)nc2cc(NCc3cn4cc(C5CC5)ccc4n3)ccc12 (racemic) [Example 48, rac-2-((1S*,2S*)-2-(3-chlorophenyl)cyclopropyl)-N-((6-cyclopropylimidazo[1,2-a]pyridin-2-yl)methyl)-4-methoxyquinolin-7-amine] is higher in EC50: 1 to 10 nM for the first, 10 to 100 nM for the second. The first is the more potent here.

Clc1cccc([C@H]2C[C@@H]2c2nc3ncncc3n2Cc2cn3cc(C4CC4)ccc3n2)c1 [Example 44, 8-((1S,2S)-2-(3-chlorophenyl)cyclopropyl)-7-((6-cyclopropylimidazo[1,2-a]pyridin-2-yl)methyl)-7H-purine] and O[C@H]1C[C@H](c2cn3cc(C4CC4)ccc3n2)N(c2cc3[nH]c([C@H]4C[C@@H]4c4cccc(Cl)c4)c(F)c3cn2)C1 (relative stereo) [Example 56, rac-(3S,5R)-1-(2-((1S*,2S*)-2-(3-chlorophenyl)cyclopropyl)-3-fluoro-1H-pyrrolo[3,2-c]pyridin-6-yl)-5-(6-cyclopropylimidazo[1,2-a]pyridin-2-yl)pyrrolidin-3-ol] cannot be ordered by EC50: over 6500 nM for the first, over 6500 nM for the second.

Compared with COc1cc([C@H]2C[C@@H]2c2cccc(Cl)c2)nc2cc(NCc3cn4cc(C5CC5)cc(N5CCCC5=O)c4n3)ccc12 (racemic) [Example 4, rac-1-(2-(((2-((7S*,2S*)-2-(3-chlorophenyl)cyclopropyl)-4-methoxyquinolin-7-yl)amino)methyl)-6-cyclopropylimidazo[1,2-a]pyridin-8-yl)pyrrolidin-2-one], COCc1cc([C@H]2C[C@@H]2c2nccc(C)n2)nc2cc(NCc3cn4cc(C5CC5)cc(N5CC(=O)N(C)C5=O)c4n3)ccc12 (racemic) [Example 76, rac-1-(6-cyclopropyl-2-(((4-(methoxymethyl)-2-((1S*,2S*)-2-(4-methylpyrimidin-2-yl)cyclopropyl)quinolin-7-yl)amino)methyl)imidazo[1,2-a]pyridin-8-yl)-3-methylimidazolidine-2,4-dione] is lower in EC50: 10 to 100 nM for the first, at most 1 nM for the second.

Cc1ccnc([C@H]2C[C@@H]2c2ncc3cnc(NCc4cn5cc(C6CC6)cc(N6CC(=O)N(C)C6=O)c5n4)cc3n2)n1 (racemic) [Example 63, rac-1-(6-cyclopropyl-2-(((2-((1S*,2S*)-2-(4-methylpyrimidin-2-yl)cyclopropyl)pyrido[4,3-d]pyrimidin-7-yl)amino)methyl)imidazo[1,2-a]pyridin-8-yl)-3-methylimidazolidine-2,4-dione] and Cc1ccnc([C@H]2C[C@@H]2c2ccc3ncc(N(C)Cc4cn5cc(C6CC6)cc(N6CC(=O)N(C)C6=O)c5n4)cc3c2)n1 (racemic) [Example 17, rac-1-(6-Cyclopropyl-2-((methyl(6-((1S*,2S*)-2-(4-methylpyrimidin-2-yl)cyclopropyl)quinolin-3-yl)amino)methyl)imidazo[1,2-a]pyridin-8-yl)-3-methylimidazolidine-2,4-dione] fall in the same range of EC50: 100 to 6500 nM for the first, 100 to 6500 nM for the second.

In the case of COc1cc(OCc2cn3cc(C4CC4)cc(N4CC(=O)N(C)C4=O)c3n2)cc2nc([C@H]3C[C@@H]3c3nccc(C)n3)ccc12 (racemic) [Example 102, rac-1-(6-cyclopropyl-2-(((5-methoxy-2-((1S*,2S*)-2-(4-methylpyrimidin-2-yl)cyclopropyl)quinolin-7-yl)oxy)methyl)imidazo[1,2-a]pyridin-8-yl)-3-methylimidazolidine-2,4-dione], the EC50 is reported as 10 to 100 nM.
